Drawing on ChEMBL document CHEMBL2424648, “Carbonic anhydrase inhibitors: synthesis and inhibition of the human carbonic anhydrase isoforms I, II, VII, IX and XII with benzene sulfonamides incorporating 4,5,6,7-tetrabromophthalimide moiety” (Bioorg Med Chem, 2013), this text covers Ki for nine compounds.

Among the targets are Carbonic anhydrase 12 (Homo sapiens, UniProt O43570); Carbonic anhydrase 1 (Homo sapiens, UniProt P00915); Carbonic anhydrase 2 (Homo sapiens, UniProt P00918); Carbonic anhydrase 9 (Homo sapiens, UniProt Q16790).

For orientation: Ki means a dissociation constant, usually derived from enzyme kinetics or from competition with a known ligand.

Carbonic anhydrase 12, sequence (O43570 whole entry): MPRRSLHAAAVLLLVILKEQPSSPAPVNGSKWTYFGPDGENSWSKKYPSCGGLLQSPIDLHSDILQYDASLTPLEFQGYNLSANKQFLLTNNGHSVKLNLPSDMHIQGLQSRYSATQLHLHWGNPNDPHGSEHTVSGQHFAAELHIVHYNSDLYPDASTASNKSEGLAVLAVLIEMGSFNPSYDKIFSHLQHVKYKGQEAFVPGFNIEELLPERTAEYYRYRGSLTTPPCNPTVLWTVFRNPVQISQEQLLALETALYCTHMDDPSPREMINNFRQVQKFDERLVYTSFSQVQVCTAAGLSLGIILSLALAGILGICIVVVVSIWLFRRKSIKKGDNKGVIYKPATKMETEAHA
Carbonic anhydrase 1, sequence (P00915 whole entry): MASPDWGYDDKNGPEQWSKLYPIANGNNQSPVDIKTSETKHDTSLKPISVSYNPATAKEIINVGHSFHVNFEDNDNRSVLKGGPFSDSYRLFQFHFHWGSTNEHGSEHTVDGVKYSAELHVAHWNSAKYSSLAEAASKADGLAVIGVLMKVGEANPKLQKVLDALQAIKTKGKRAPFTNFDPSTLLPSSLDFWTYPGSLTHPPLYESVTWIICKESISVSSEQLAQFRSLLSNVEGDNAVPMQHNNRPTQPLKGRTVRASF

For the compound `NS(=O)(=O)c1ccc(CCNC(=S)Nc2ccc(-c3c4ccc(=O)cc-4oc4cc(O)ccc34)c(C(=O)O)c2)cc1`, at Carbonic anhydrase 12, affinity was put at a Ki of 5 nM. This lies in the single-digit nanomolar range.

Turning to `NS(=O)(=O)c1cccc(N2C(=O)c3c(Br)c(Br)c(Br)c(Br)c3C2=O)c1`, the inhibition constant (Ki) at Carbonic anhydrase 12 was 19 nM; at Carbonic anhydrase 1, 340 nM.

With `NS(=O)(=O)c1ccccc1N1C(=O)c2c(Br)c(Br)c(Br)c(Br)c2C1=O`, the Ki on Carbonic anhydrase 12 is 197 nM; on Carbonic anhydrase 1, greater than 10000 nM; at Carbonic anhydrase 2, 190 nM; at Carbonic anhydrase 9, 234 nM.

For the compound `NS(=O)(=O)c1ccc(N2C(=O)c3c(Br)c(Br)c(Br)c(Br)c3C2=O)c(F)c1`, the inhibition constant (Ki) at Carbonic anhydrase 12 was 7.5 nM; on Carbonic anhydrase 1, 770 nM; on Carbonic anhydrase 2, 96 nM; at Carbonic anhydrase 9, 9.4 nM.

Take `NS(=O)(=O)c1ccc(N2C(=O)c3c(Br)c(Br)c(Br)c(Br)c3C2=O)c(Cl)c1`: the inhibition constant (Ki) at Carbonic anhydrase 12 worked out at 5.9 nM; on Carbonic anhydrase 1, 208 nM; at Carbonic anhydrase 2, 55 nM; at Carbonic anhydrase 9, 8.5 nM.

Turning to `NS(=O)(=O)c1ccc(N2C(=O)c3c(Br)c(Br)c(Br)c(Br)c3C2=O)c(Br)c1`, the Ki at Carbonic anhydrase 12 stood at 6.5 nM; at Carbonic anhydrase 1, 143 nM; on Carbonic anhydrase 2 it was 47 nM; on Carbonic anhydrase 9 it was 8.8 nM.

As to `NS(=O)(=O)c1ccc(N2C(=O)c3c(Br)c(Br)c(Br)c(Br)c3C2=O)cc1`, the inhibition constant (Ki) on Carbonic anhydrase 12 amounted to 6.1 nM; at Carbonic anhydrase 1, 432 nM; at Carbonic anhydrase 2, 68 nM; at Carbonic anhydrase 9, 9.1 nM.

In the case of `NS(=O)(=O)c1ccc(CN2C(=O)c3c(Br)c(Br)c(Br)c(Br)c3C2=O)cc1`, the inhibitory constant (Ki) at Carbonic anhydrase 12 amounted to 12.3 nM; on Carbonic anhydrase 1 it was 251 nM; on Carbonic anhydrase 9 it was 12.3 nM.

Turning to `NS(=O)(=O)c1ccc(CCN2C(=O)c3c(Br)c(Br)c(Br)c(Br)c3C2=O)cc1`, the values for the Ki on Carbonic anhydrase 12 and at Carbonic anhydrase 9 were 10.2 nM and 15.9 nM, respectively.
